How the values were obtained:
[1] = Stability in liver microsomes, dog; assay type: in vitro ADME; settings: 60 minutes, read-out: In vitro Clint
Procedure: For metabolic stability, microsomes from human, monkey, dog, rat and mouse were used. For stability, prodrugs (1 μM) were spiked in each microsomes matrix and incubated in an orbital shaker at 37° C. Aliquots of 50 μL were taken from the reaction solution at 0, 15, 30, 45 and 60 min. The reaction was stopped by the addition of 4 volumes of cold acetonitrile with IS (100 nM alprazolam, 200 nM labetalol, 200 nM caffeine and 2 μM ketoprofen). Samples were centrifuged at 3, 220 g for 40 minutes. Aliquot of 100 μL of the supernatant was mixed with 100 μL of ultra-pure H2O and then used for LC-MS/MS analysis.
For LC-MS/MS, prodrugs were analyzed on an API 4000 instrument from AB Inc (Canada) with an ESI interface coupled to Shimadzu LC system on an Waters XSelect HSS T3 C18, 2.5 m, 2.1×30 mm column.
For data analysis, peak areas were determined from extracted ion chromatograms. The slope value, k, was determined by linear regression of the natural logarithm of the remaining percentage of the parent drug vs. incubation time curve. The in vitro half-life (in vitro t1/2) was determined from the slope value: in vitro t1/2=−(0.693/k)
Conversion of the in vitro t1/2 (min) into the in vitro intrinsic clearance (in vitro CLint, in μL/min/mg protein) was done using the following equation (mean of duplicate determinations): […]

[2] = Plasma stability, human plasma; settings: 1 μM, 37° C., 4 hours
Procedure: For metabolic stability, plasma from dog, monkey, swine and human were used. For stability, prodrugs (1 μM) were spiked in respective solutions and incubated in an orbital shaker at 37° C. 50 μL aliquots of the mixture in duplicate were removed, and the reaction quenched by addition of four times the volume of ice cold acetonitrile spiked with the internal standard (Dexamethasone 100 ng/mL). […] 100 μL of the supernatant was diluted with 100 μL of water and transferred to the 0.6 mL plastic tubes on 96-well plate. Prodrug disappearance was monitored over time using a liquid chromatography and tandem mass spectrometry (LC-MS/MS).
For LC-MS/MS, prodrugs were analyzed on a ExionLC AD HPLC system coupled to REF Triple Quad 5500+ mass spectrometer with an ESI interface on an Phenomenex Kinetex 5 m C18 100A (2.1*50) mm UPLC column. The autosampler was temperature controlled and was operated at 4° C. The mobile phase used for the chromatographic separation was composed of acetonitrile/water containing 0.10% formic acid and will run at a flow rate of 0.6 mL/min for 3.5 min using gradient elution. The column effluent was monitored using […], equipped with an electrospray probe set in the positive ionization mode. Samples were introduced into the ionization source through a heated nebulized probe (400° C.). Disappearance of prodrugs will be measured from ratio of peak areas of analyte to IS.
For quantification of compound remaining, disappearance of prodrugs was measured from ratio of peak areas of analyte to IS.

[3] = tested on: MC38 tumor cells; experiment: Anti-tumor efficacy in MC38 model in CES1c -/- mouse (Example 10); assay type: in vivo; settings: for TV (mm^3) (Mean ± SEM) D6 / TV (mm^3) (Mean ± SEM) D9 / TV (mm^3) (Mean ± SEM) D12 / TV (mm^3) (Mean ± SEM) D15 / TV (mm^3) (Mean ± SEM) D20 / TV (mm^3) (Mean ± SEM) D23 / T/C (%) / TGI (%) / TV (mm^3) (Mean ± SEM) D26: MC38, 2 μmol/kg S.C. QD; for T/C (%) / TGI (%) / TV (mm^3) (Mean ± SEM) D26 / TV (mm^3) at D26 (Mean ± SEM): D26; for TV (mm^3) at D26 (Mean ± SEM): Table 9, MC38, 2 μmol/kg S.C. QD
Procedure: (§1) Animal species: Mus musculus; Strain: C57BL/6-Ces1c^emISmoc; Age: 6-8 weeks; Sex: female. (Shanghai Model Organisms). The MC38 tumor cells were maintained in vitro in DMEM medium supplemented with 10% FBS at 37° C., 5% CO2. The cells growing in an exponential growth phase were harvested and counted for tumor inoculation. The culture MC38 were harvested, re-suspended in PBS containing 50% Matrigel at a density of 1×10^7 cells/mL. Each mouse was inoculated subcutaneously in the right flank region with 1×10^6 in 0.1 mL of PBS containing 50% Matrigel for tumor development.
The treatments were started when the mean tumor size reached 52-132 mm^3 (average tumor size 95 mm^3). Each group contained 5 tumor bearing mice. Group 1 was treated with Vehicle (10% DMSO+90% Saline), S.C., QD(Subcutaneous injection, quaque die).
(§2) In vivo efficacy was examined according to absolute tumor growth inhibition (TGI) and the safety was evaluated according to weight change and survival in mice.
(§3) Statistical analysis of difference in tumor volume among the groups was performed using one-way ANOVA followed by individual comparisons using Games-Howell post-hoc test (equal variance not assumed). All data was analyzed using SPSS 22.0 software.

[4] = Solubility in water, remark in the synthesis example; assay type: physicochemical; settings: remark on the isolated product
[5] = tested on: MC38 tumor cells; experiment: Anti-tumor efficacy in MC38 model in C57BL/6 mouse (Example 11); assay type: in vivo; settings: C57BL/6, MC38, 2 μmol/kg S.C. QD
Procedure: as §1, with “C57BL/6;” for “C57BL/6-Ces1c^emISmoc;”, “female.” for “female. (Shanghai Model Organisms).”, “1×10^6 cells” for “1×10^6”
The treatments were started when the mean tumor size reached 82-129 mm^3 (average tumor size 102 mm^3). Each group contained 6 tumor bearing mice. Group 1 was treated with Vehicle (10% DMSO+90% Saline), S.C., QD.
as §2, §3

[6] = Body weight of C57BL/6 mice bearing MC38 tumors (Example 11); assay type: in vivo, Mus musculus; settings: C57BL/6, MC38, 2 μmol/kg S.C. QD
Procedure: The treatments were started when the mean tumor size reached 82-129 mm^3 (average tumor size 102 mm^3). Each group contained 6 tumor bearing mice. Group 1 was treated with Vehicle (10% DMSO+90% Saline), S.C., QD. Group 2 was given treatments with compound 2 at 2 μmol/kg, S.C., QD. Group 3 was given treatments with compound 81 at 2 μmol/kg, S.C., QD. Group 4 was given treatments with compound 443 at 2 μmol/kg, S.C., QD. Group 5 was given treatments with compound 459 at 2 μmol/kg, S.C., QD. Group 6 was given treatments with compound 3 at 2 μmol/kg, S.C., QD.
as §2

| SMILES | microsomal CLint at 1 μM [1] [µL/min/mg] | plasma stability (compound remaining) [2] | TV (mm^3) (Mean ± SEM) D6 [3] | TV (mm^3) (Mean ± SEM) D9 [3] | TV (mm^3) (Mean ± SEM) D12 [3] | TV (mm^3) (Mean ± SEM) D15 [3] | TV (mm^3) (Mean ± SEM) D20 [3] | TV (mm^3) (Mean ± SEM) D23 [3] | T/C (%) [3] [%] | TGI (%) [3] [%] | TV (mm^3) (Mean ± SEM) D26 [3] | TV (mm^3) at D26 (Mean ± SEM) [3] [mm^3] | other results |
| --- | --- | --- | --- | --- | --- | --- | --- | --- | --- | --- | --- | --- | --- |
| CC(=O)N[C@@H](Cc1c[nH]c2ccccc12)C(=O)N[C@@H](CCC(=O)C=[N+]=[N-])C(=O)OC(C)C [Reference compound A, reference compound] | 60.4 | substantially intact | 95 ± 6 | 275 ± 33 | 147 ± 5 | 195 ± 23 | 196 ± 33 | 183 ± 33 | 12.3 | 87.7 | 274 ± 81 | 274 ± 81 | – |
| CO[C@@H](C)C(=O)N[C@@H](CCC(=O)C=[N+]=[N-])C(=O)OC(C)C [Compound 2, isopropyl (S)-6-diazo-2-((S)-2-methoxypropanamido)-5-oxohexanoate] | 12.7 | substantially intact | 95 ± 11 | 193 ± 20 | 103 ± 15 | 131 ± 21 | 169 ± 19 | 219 ± 21 | 14.0 | 86.0 | 313 ± 35 | 313 ± 35 | solubility in water [4]: easily dissolved in water; T/C (%) ([5]; Example 11): 17.5%; TGI (%) ([5]; Example 11): 82.5%; TV (mm^3) (Mean ± SEM) D6 ([5]; Example 11, D6): 102 ± 7 mm^3; TV (mm^3) (Mean ± SEM) D10 ([5]; Example 11, D10): 167 ± 17 mm^3; TV (mm^3) (Mean ± SEM) D13 ([5]; Example 11, D13): 257 ± 51 mm^3; TV (mm^3) (Mean ± SEM) D17 ([5]; Example 11, D17): 306 ± 43 mm^3; TV (mm^3) (Mean ± SEM) D20 ([5]; Example 11, D20): 407 ± 33 mm^3; TV (mm^3) at D21 (Mean ± SEM) ([5]; Table 13, D21): 407 ± 33 mm^3; BW(g) (Mean ± SEM) Beginning (D6) ([6]; D6): 19.8 ± 0.2 g; BW Change (%) ([6]; D6 to D20): +6.4%; BW(g) (Mean ± SEM) End (D20) ([6]; D20): 21.1 ± 0.3 g |

From patent US12577201B2, “Glutamine analogs” (Jacobio Pharmaceuticals Co., Ltd., priority 2020, dated 2026)
